Consider eleven compounds from ChEMBL document CHEMBL1133302, “Use of proline bioisosteres in potential HIV protease inhibitors: phenylalanine-2-thiophenoxy-3-pyrrolidinone: synthesis and anti-HIV evaluation” (Bioorg Med Chem Lett, 2000).

Usually EC50 stands for the concentration that produces a half-maximal response. High values mean lower potency in that assay, low ones higher potency in that assay. The term CC50 denotes the concentration at which the toxic effect on the cells reaches its halfway point. As usually defined, the IC50 is the point on the concentration scale where inhibition reaches its midpoint. Read a low IC50 as greater potency.

The subject of experiment [1] is MT4. The experiment can be described thus: EC50 value was measured as concentration required to inhibit syncytia formation by 50% in MT-4 cells. Format: functional, cell-based. The following applies: Homo sapiens.
The subject of experiment [2] is MT4. The experiment can be described thus: CC50 value was measured as concentration required to cause 50% death of uninfected MT-4 cells. Format: functional. To be noted: Homo sapiens.
Experiment [3] is described as follows: Selective index is the ratio of CC50 to that of EC50 (CC50/EC50). Format: functional.
Experiment [4] deals with T1, Human immunodeficiency virus type 1 protease (Human immunodeficiency virus 1, UniProt Q72874). As to the kind of experiment: Compound was evaluated for the inhibition of HIV-1 protease.
In experiment [5] the test system is MT4. As to the kind of experiment: EC50 value was measured as concentration required to inhibit syncytia formation by 50% in MT-4 cells; NA-Nonactive at nontoxic concentration. Type of experiment: functional, cell-based, Homo sapiens.
The target in experiment [6] is T1, Human immunodeficiency virus type 1 protease. The experiment can be described thus: Compound was evaluated for the inhibition of HIV-1 protease; NA-Nonactive at nontoxic concentration.

`CC(C)(C)OC(=O)N[C@@H](Cc1ccccc1)C(=O)N1CCC(=O)[C@@H]1Sc1ccccc1` displayed an EC50 in the experiment with MT4 [1] of 50 µM. In the experiment with MT4 [2], the cytotoxic concentration (CC50) was 100 µM. In experiment [3], the SI came to 2. In addition, the IC50 in experiment [4] came out at 1 µM.
With `COc1ccc(C[C@H](NC(=O)OC(C)(C)C)C(=O)N2CCC(=O)[C@@H]2Sc2ccccc2)cc1`, in the experiment on MT4 [5], the EC50 entry is on record as “Not Active”. Further, the CC50 in the experiment on MT4 [2] was greater than 100 µM. Also, the IC50 in experiment [4] was 10 µM.
Take `O=C(N[C@@H](Cc1ccccc1)C(=O)N1CCC(=O)C1Sc1ccccc1)c1ccc2ccccc2n1` (some centres undefined): the EC50 result with MT4 [5] is “Not Active”. Moreover, the CC50 in the experiment on MT4 [2] turned out to be 50 µM. In experiment [4], this compound had an IC50 of 5 µM.
`CC(C)(C)OC(=O)N[C@@H](Cc1ccccc1)C(=O)N1CCC(=O)[C@H]1Sc1ccccc1` displayed an EC50 with MT4 [1] of 1 µM. The compound further came in with a CC50 with MT4 [2] greater than 100 µM. Also, in experiment [3], the SI was greater than 100. For the same compound, in experiment [4], the concentration for half-maximal inhibition (IC50) was 0.008 µM.
Regarding `CC(C)(C)OC(=O)N[C@@H](Cc1ccc(O)cc1)C(=O)N1CCC(=O)[C@@H]1Sc1ccccc1`, the EC50 with MT4 [1] was found to be 50 µM. The compound also came in with a half-maximal cytotoxic concentration (CC50) in the experiment on MT4 [2] greater than 100 µM. In addition, the SI in experiment [3] was greater than 2. This compound also gave an IC50 in experiment [4] of 0.025 µM.
Regarding `CC(C)(C)OC(=O)N[C@@H](Cc1ccc(OCc2ccccc2)cc1)C(=O)N1CCC(=O)[C@@H]1Sc1ccccc1`, in the experiment with MT4 [5], the EC50 entry is recorded as “Not Active”. In the experiment with MT4 [2], this compound returned a CC50 of 10 µM. The compound further registered an IC50 in experiment [4] of 0.02 µM.
Compound `CC(C)(C)OC(=O)N[C@@H](Cc1ccc(O)cc1)C(=O)N1CCC(=O)[C@H]1Sc1ccccc1` registered an EC50 in the experiment on MT4 [1] of 0.1 µM. This compound came in with a cytotoxic concentration (CC50) in the experiment on MT4 [2] of 50 µM. Further, the SI in experiment [3] came out at 500. This compound gave an IC50 in experiment [4] of 0.026 µM.
In the case of `COc1ccc(C[C@H](NC(=O)OC(C)(C)C)C(=O)N2CCC(=O)[C@H]2Sc2ccccc2)cc1`, in the experiment on MT4 [5], the EC50 result is given as “Not Active”. In the experiment on MT4 [2], the CC50 worked out at 50 µM. The compound also registered an IC50 in experiment [4] of 10 µM.
Take `CC(C)(C)OC(=O)NC(Cc1ccccc1)C(=O)N1CCC(=O)C1Sc1ccccc1` (racemic): the EC50 entry in the experiment on MT4 [5] was “Not Active”. Also, the IC50 result in experiment [6] is “Not Active”. This compound displayed a CC50 in the experiment on MT4 [2] greater than 100 µM.
`CC(C)(C)OC(=O)N[C@@H](Cc1ccc(OCc2ccccc2)cc1)C(=O)N1CCC(=O)[C@H]1Sc1ccccc1` came in with a concentration for a half-maximal effect (EC50) with MT4 [1] of 0.1 µM. In the experiment on MT4 [2], this compound came in with a cytotoxic concentration (CC50) of 50 µM. Further, the SI in experiment [3] worked out at 500. Moreover, in experiment [4], the IC50 was 0.02 µM.
Compound `O=C(N[C@@H](Cc1ccccc1)C(=O)N1CCC(=O)C1Sc1ccccc1)c1cccnc1` (some centres undefined) came in with an EC50 in the experiment on MT4 [1] of 1 µM. Further, the CC50 in the experiment on MT4 [2] came out at 50 µM. For the same compound, in experiment [3], the SI came to 50. The same compound yielded an IC50 in experiment [4] of 0.1 µM.
